Results as given in PubChem BioAssay AID1963421 (Molecular Pharmacology Branch, DTP, NCI, 2024).

Tested on: 519858-162-T-J1-PDC complex spheroid growth, % test/control
Experiment: Anticancer human tumor 519858-162-T-J1-PDC patient-derived colon adenocarcinoma cell line growth inhibition [Asc]
Conditions: for IC50: curve of first compound; for viability, T/C: stronger effect = lower value
Summary of the method: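 Tumor cells were grown as multicellular spheroids with stromal HUVEC and mesenchymal stem cells and treated singly or in combination. Concentrations fell in half-log steps from the clinical Cmax, or from 10 microM where none was known.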
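Note: seven day drug exposure begun three days after spheroid seeding.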
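Throughout, for viability, T/C: 100% = DMSO vehicle wells and lower values mean less viable spheroid.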

## Cc1nc(N2CCC3(CC2)COC(C)C3N)c(CO)nc1Sc1ccnc(N)c1Cl (configuration not stated) + Cc1c(S(C)(=O)=O)c(-c2cc(F)cc(N3CCN(c4ccc(NS(=O)(=O)c5ccc(NC(CCN6CCC(C(=O)OCCCP(=O)(O)O)CC6)CSc6ccccc6)c(S(=O)(=O)C(F)(F)F)c5)cc4)CC3)c2)c(-c2ccc(Cl)cc2)n1C(C)C
Second compound 0.0316 µM
  IC50: 2100 nM
Second compound 0.1 µM
  IC50: 823 nM
Second compound 0.316 µM
  IC50: > 3000 nM
Second compound 1 µM
  IC50: > 3000 nM
Second compound 3.16 µM
  IC50: > 3000 nM
Second compound 10 µM
  IC50: > 3000 nM
Second compound 0.0316 µM, first compound 0.00949 µM
  viability, T/C: 90.4%
Second compound 0.0316 µM, first compound 0.03 µM
  viability, T/C: 106%
Second compound 0.0316 µM, first compound 0.0949 µM
  viability, T/C: 47.1%
Second compound 0.0316 µM, first compound 0.3 µM
  viability, T/C: 73.5%
Second compound 0.0316 µM, first compound 0.949 µM
  viability, T/C: 68%
Second compound 0.0316 µM, first compound 3 µM
  viability, T/C: 39.9%
Second compound 0.1 µM, first compound 0.00949 µM
  viability, T/C: 109%
Second compound 0.1 µM, first compound 0.03 µM
  viability, T/C: 105%
Second compound 0.1 µM, first compound 0.0949 µM
  viability, T/C: 78.5%
Second compound 0.1 µM, first compound 0.3 µM
  viability, T/C: 63.9%
Second compound 0.1 µM, first compound 0.949 µM
  viability, T/C: 47.3%
Second compound 0.1 µM, first compound 3 µM
  viability, T/C: 43.6%
Second compound 0.316 µM, first compound 0.00949 µM
  viability, T/C: 81.5%
Second compound 0.316 µM, first compound 0.03 µM
  viability, T/C: 92.9%
Second compound 0.316 µM, first compound 0.0949 µM
  viability, T/C: 68%
Second compound 0.316 µM, first compound 0.3 µM
  viability, T/C: 101%
Second compound 0.316 µM, first compound 0.949 µM
  viability, T/C: 68.4%
Second compound 0.316 µM, first compound 3 µM
  viability, T/C: 50.5%
Second compound 1 µM, first compound 0.00949 µM
  viability, T/C: 92.5%
Second compound 1 µM, first compound 0.03 µM
  viability, T/C: 68.5%
Second compound 1 µM, first compound 0.0949 µM
  viability, T/C: 52.5%
Second compound 1 µM, first compound 0.3 µM
  viability, T/C: 75.5%
Second compound 1 µM, first compound 0.949 µM
  viability, T/C: 43.2%
Second compound 1 µM, first compound 3 µM
  viability, T/C: 53.7%
Second compound 3.16 µM, first compound 0.00949 µM
  viability, T/C: 71.4%
Second compound 3.16 µM, first compound 0.03 µM
  viability, T/C: 95.6%
Second compound 3.16 µM, first compound 0.0949 µM
  viability, T/C: 67.6%
Second compound 3.16 µM, first compound 0.3 µM
  viability, T/C: 62.8%
Second compound 3.16 µM, first compound 0.949 µM
  viability, T/C: 74.8%
Second compound 3.16 µM, first compound 3 µM
  viability, T/C: 56.2%
Second compound 10 µM, first compound 0.00949 µM
  viability, T/C: 68.9%
Second compound 10 µM, first compound 0.03 µM
  viability, T/C: 86.4%
Second compound 10 µM, first compound 0.0949 µM
  viability, T/C: 61.1%
Second compound 10 µM, first compound 0.3 µM
  viability, T/C: 59.8%
Second compound 10 µM, first compound 0.949 µM
  viability, T/C: 64%
Second compound 10 µM, first compound 3 µM
  viability, T/C: 76.5%
